Source: the supplement of paper PMC10307832

What was measured:
Assay in all cases: relative viability (nuclei count vs DMSO), 5 days (fraction); higher = more cells survive
[1] = compound: C1/C(=C\C2=CC=CS2)/C(=O)/C(=C/C3=CC=CS3)/C1 + CC(C)C[C@H](NC(=O)[C@H](Cc1ccccc1)NC(=O)c1cnccn1)B(O)O [Bortezomib] (partner 0.002 µM)
Procedure, shortened: (§1)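 Dosing by pin tool came one day after lung cancer cell lines were seeded in 1536-well plates, using either one drug or a fixed anchor-drug dose plus five library-drug doses (not always all listed) in √10 steps. After 5 days, nuclei were counted on 4× images. Relative viability is treated-well nuclei count divided by vehicle-well nuclei count, and values are medians of duplicate plates.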

[2] = compound: C1/C(=C\C2=CC=CS2)/C(=O)/C(=C/C3=CC=CS3)/C1 + CS(=O)(=O)N1CCN(Cc2cc3nc(-c4cccc5[nH]ncc45)nc(N4CCOCC4)c3s2)CC1 [Pictilisib] (partner 1 µM)
Procedure, shortened: as §1

[3] = compound: C[C@]12O[C@H](C[C@]1(O)CO)n1c3ccccc3c3c4c(c5c6ccccc6n2c5c31)CNC4=O [Lestaurtinib] + CC(=O)Nc1cccc(-n2c(=O)n(C3CC3)c(=O)c3c(Nc4ccc(I)cc4F)n(C)c(=O)c(C)c32)c1 [Trametinib] (partner 0.02 µM)
Procedure, shortened: as §1

[4] = compound: C1/C(=C\C2=CC=CS2)/C(=O)/C(=C/C3=CC=CS3)/C1 + CCNC(=O)c1noc(-c2cc(C(C)C)c(O)cc2O)c1-c1ccc(CN2CCOCC2)cc1 [Luminespib] (partner 0.01 µM)
Procedure, shortened: as §1

## NCI-H1299
[1]; first compound 0.2 µM
  relative viability: 1.07
[1]; first compound 0.6325 µM
  relative viability: 1.05
[1]; first compound 2 µM
  relative viability: 0.96
[1]; first compound 6.325 µM
  relative viability: 0.898
[1]; first compound 20 µM
  relative viability: 1.03
[2]; first compound 0.2 µM
  relative viability: 0.79
[2]; first compound 0.6325 µM
  relative viability: 0.863
[2]; first compound 2 µM
  relative viability: 0.806
[2]; first compound 6.325 µM
  relative viability: 0.758
[2]; first compound 20 µM
  relative viability: 0.799

## LK-2
[3]; first compound 0.005 µM
  relative viability: 0.778
[3]; first compound 0.01581 µM
  relative viability: 0.941
[3]; first compound 0.05 µM
  relative viability: 0.718
[3]; first compound 0.1581 µM
  relative viability: 0.65
[3]; first compound 0.5 µM
  relative viability: 0.293
[4]; first compound 0.2 µM
  relative viability: 0.166
[4]; first compound 0.6325 µM
  relative viability: 0.187
[4]; first compound 2 µM
  relative viability: 0.177
[4]; first compound 6.325 µM
  relative viability: 0.202
[4]; first compound 20 µM
  relative viability: 0.212
[2]; first compound 0.2 µM
  relative viability: 0.521
[2]; first compound 0.6325 µM
  relative viability: 0.635
[2]; first compound 2 µM
  relative viability: 0.487
[2]; first compound 6.325 µM
  relative viability: 0.491
[2]; first compound 20 µM
  relative viability: 0.561

## HCC-78
[3]; first compound 0.005 µM
  relative viability: 0.832
[3]; first compound 0.01581 µM
  relative viability: 0.807
[3]; first compound 0.05 µM
  relative viability: 0.578
[3]; first compound 0.1581 µM
  relative viability: 0.522
[3]; first compound 0.5 µM
  relative viability: 0.284
[1]; first compound 0.2 µM
  relative viability: 0.623
[1]; first compound 0.6325 µM
  relative viability: 0.464
[1]; first compound 2 µM
  relative viability: 0.534
[1]; first compound 6.325 µM
  relative viability: 0.463
[1]; first compound 20 µM
  relative viability: 0.301
[2]; first compound 0.2 µM
  relative viability: 0.197
[2]; first compound 0.6325 µM
  relative viability: 0.216
[2]; first compound 2 µM
  relative viability: 0.288
[2]; first compound 6.325 µM
  relative viability: 0.216
[2]; first compound 20 µM
  relative viability: 0.209

## NCI-H358
[3]; first compound 0.005 µM
  relative viability: 0.139
[3]; first compound 0.01581 µM
  relative viability: 0.119
[3]; first compound 0.05 µM
  relative viability: 0.157
[3]; first compound 0.1581 µM
  relative viability: 0.103
[3]; first compound 0.5 µM
  relative viability: 0.0891
[4]; first compound 0.2 µM
  relative viability: 0.324
[4]; first compound 0.6325 µM
  relative viability: 0.453
[4]; first compound 2 µM
  relative viability: 0.337
[4]; first compound 20 µM
  relative viability: 0.341
[2]; first compound 0.2 µM
  relative viability: 0.37
[2]; first compound 0.6325 µM
  relative viability: 0.312
[2]; first compound 2 µM
  relative viability: 0.412
[2]; first compound 6.325 µM
  relative viability: 0.182
[2]; first compound 20 µM
  relative viability: 0.453

## SK-MES-1
[3]; first compound 0.005 µM
  relative viability: 0.535
[3]; first compound 0.01581 µM
  relative viability: 0.515
[3]; first compound 0.05 µM
  relative viability: 0.495
[3]; first compound 0.1581 µM
  relative viability: 0.415
[3]; first compound 0.5 µM
  relative viability: 0.208
[4]; first compound 0.2 µM
  relative viability: 0.868
[4]; first compound 0.6325 µM
  relative viability: 0.646
[4]; first compound 2 µM
  relative viability: 0.839
[4]; first compound 6.325 µM
  relative viability: 0.545
[4]; first compound 20 µM
  relative viability: 0.773
[2]; first compound 0.2 µM
  relative viability: 0.282
[2]; first compound 0.6325 µM
  relative viability: 0.355
[2]; first compound 2 µM
  relative viability: 0.391
[2]; first compound 6.325 µM
  relative viability: 0.268
[2]; first compound 20 µM
  relative viability: 0.382

## NCI-H1648
[3]; first compound 0.01581 µM
  relative viability: 0.728
[3]; first compound 0.1581 µM
  relative viability: 0.458
[3]; first compound 0.5 µM
  relative viability: 0.367

## EBC-1
[1]; first compound 0.2 µM
  relative viability: 0.524
[1]; first compound 0.6325 µM
  relative viability: 0.558
[1]; first compound 2 µM
  relative viability: 0.551
[1]; first compound 6.325 µM
  relative viability: 0.441
[1]; first compound 20 µM
  relative viability: 0.605
[2]; first compound 0.2 µM
  relative viability: 0.417
[2]; first compound 0.6325 µM
  relative viability: 0.39
[2]; first compound 2 µM
  relative viability: 0.383
[2]; first compound 6.325 µM
  relative viability: 0.391
[2]; first compound 20 µM
  relative viability: 0.457

## NCI-H1395
[3]; first compound 0.005 µM
  relative viability: 1.17
[3]; first compound 0.01581 µM
  relative viability: 0.896
[3]; first compound 0.05 µM
  relative viability: 0.927
[3]; first compound 0.1581 µM
  relative viability: 0.923
[3]; first compound 0.5 µM
  relative viability: 0.608
[4]; first compound 0.2 µM
  relative viability: 0.743
[4]; first compound 0.6325 µM
  relative viability: 0.701
[4]; first compound 2 µM
  relative viability: 0.704
[4]; first compound 6.325 µM
  relative viability: 0.738
[4]; first compound 20 µM
  relative viability: 0.663
[2]; first compound 0.2 µM
  relative viability: 0.618
[2]; first compound 0.6325 µM
  relative viability: 0.73
[2]; first compound 2 µM
  relative viability: 0.67
[2]; first compound 6.325 µM
  relative viability: 0.448
[2]; first compound 20 µM
  relative viability: 0.581

## IA-LM
[1]; first compound 0.2 µM
  relative viability: 0.809
[1]; first compound 0.6325 µM
  relative viability: 0.909
[1]; first compound 2 µM
  relative viability: 0.886
[1]; first compound 6.325 µM
  relative viability: 0.753
[1]; first compound 20 µM
  relative viability: 0.665
[2]; first compound 0.2 µM
  relative viability: 0.396
[2]; first compound 0.6325 µM
  relative viability: 0.399
[2]; first compound 2 µM
  relative viability: 0.31
[2]; first compound 6.325 µM
  relative viability: 0.369
[2]; first compound 20 µM
  relative viability: 0.359

## ABC-1
[4]; first compound 0.2 µM
  relative viability: 0.33
[4]; first compound 0.6325 µM
  relative viability: 0.853
[4]; first compound 2 µM
  relative viability: 1.04
[4]; first compound 6.325 µM
  relative viability: 0.428
[4]; first compound 20 µM
  relative viability: 0.521
[1]; first compound 0.2 µM
  relative viability: 0.33
[1]; first compound 0.6325 µM
  relative viability: 0.349
[1]; first compound 2 µM
  relative viability: 0.336
[1]; first compound 6.325 µM
  relative viability: 0.265
[1]; first compound 20 µM
  relative viability: 0.253
[2]; first compound 0.2 µM
  relative viability: 0.896
[2]; first compound 0.6325 µM
  relative viability: 0.64
[2]; first compound 2 µM
  relative viability: 0.882
[2]; first compound 6.325 µM
  relative viability: 0.631
[2]; first compound 20 µM
  relative viability: 0.658

## NCI-H1703
[1]; first compound 0.2 µM
  relative viability: 0.338
[1]; first compound 0.6325 µM
  relative viability: 0.432
[1]; first compound 2 µM
  relative viability: 0.28
[1]; first compound 6.325 µM
  relative viability: 0.25
[1]; first compound 20 µM
  relative viability: 0.336
[2]; first compound 0.2 µM
  relative viability: 0.278
[2]; first compound 0.6325 µM
  relative viability: 0.247
[2]; first compound 2 µM
  relative viability: 0.259
[2]; first compound 6.325 µM
  relative viability: 0.227
[2]; first compound 20 µM
  relative viability: 0.248

## NCI-H2170
[3]; first compound 0.005 µM
  relative viability: 0.896
[3]; first compound 0.01581 µM
  relative viability: 0.864
[3]; first compound 0.05 µM
  relative viability: 0.609
[3]; first compound 0.1581 µM
  relative viability: 0.764
[3]; first compound 0.5 µM
  relative viability: 0.31
[4]; first compound 0.2 µM
  relative viability: 0.98
[4]; first compound 0.6325 µM
  relative viability: 0.582
[4]; first compound 2 µM
  relative viability: 0.788
[4]; first compound 6.325 µM
  relative viability: 0.632
[4]; first compound 20 µM
  relative viability: 0.719
[2]; first compound 0.2 µM
  relative viability: 0.334
[2]; first compound 0.6325 µM
  relative viability: 0.341
[2]; first compound 2 µM
  relative viability: 0.31
[2]; first compound 6.325 µM
  relative viability: 0.278
[2]; first compound 20 µM
  relative viability: 0.313

## NCI-H1793
[3]; first compound 0.005 µM
  relative viability: 0.425
[3]; first compound 0.01581 µM
  relative viability: 0.467
[3]; first compound 0.05 µM
  relative viability: 0.432
[3]; first compound 0.1581 µM
  relative viability: 0.461
[3]; first compound 0.5 µM
  relative viability: 0.346
[4]; first compound 0.2 µM
  relative viability: 0.229
[4]; first compound 0.6325 µM
  relative viability: 0.178
[4]; first compound 2 µM
  relative viability: 0.189
[4]; first compound 6.325 µM
  relative viability: 0.153
[4]; first compound 20 µM
  relative viability: 0.179
[2]; first compound 0.2 µM
  relative viability: 0.409
[2]; first compound 0.6325 µM
  relative viability: 0.202
[2]; first compound 2 µM
  relative viability: 0.291
[2]; first compound 6.325 µM
  relative viability: 0.31
[2]; first compound 20 µM
  relative viability: 0.352
